{"source": "patent US12459918B2", "about": "“Isoquinolinone derivatives serving as rock protein kinase inhibitors and use thereof” (GUANGZHOU OCUSUN OPHTHALMIC BIOTECHNOLOGY CO., LTD., priority 2019, dated 2025)", "key": {"[1]": {"system": "New Zealand rabbits with normal intraocular pressure", "assay": "Reduction of intraocular pressure by repeated eye-drop administration for 14 days, experiment operation 1", "format": "in vivo", "conditions": "for Change of intraocular pressure: negative control minus group", "description": "(§1) Experimental example 4. Experiment on reduction of intraocular pressure and ocular toxicity of New Zealand rabbits with normal intraocular pressure by repeated eye-drop administration for 14 days\n(§2) The intraocular pressure reduction action and the potential ocular toxicity of compound 63 were explored by 14 days of repeated eye-drop administration in rabbits with normal intraocular pressure.\n(§3) Male New Zealand rabbits, aged 97-127 days, weighted 2.6-3.5 kg, purchased from PizhouDongfang Breeding Co. Ltd.\nThe male New Zealand rabbits were randomly divided into 7 groups, with 6 rabbits per group. Animals were randomly divided according to body weight Animals in 1-7 groups were eye-dropped with solvent/control sample/test sample in both eyes, the volume of the administration was all 50 μL/eye, once per day for 14 consecutive days, and the day of the administration was recorded as Day 1. On Day 1, intraocular pressure of the animals was measured before the administration and in 1, 2, 4, 6, 8 and 10 hours after the administration, respectively; on Days 2-14, intraocular pressure of the animals was measured in 1 hour after daily administration for the group administered with K-115, and intraocular pressure of the animal was measured in 4 hours after daily administration for the other groups."}, "[2]": {"system": "New Zealand rabbits with normal intraocular pressure", "assay": "Repeated eye-drop administration for 14 days, experiment operation 2: Day 1 intraocular pressure", "format": "in vivo", "conditions": "Day 1; for Mean intraocular pressure of both eyes: 4 mg/mL in right eye, saline in left; for Change of intraocular pressure: 4 mg/mL, group minus negative control", "description": "as §1, §2, §3\n42 male New Zealand rabbits were randomly divided into 7 groups, with 6 rabbits per group. Animals were randomly divided according to body weight Animals in 1-7 groups were eye-dropped with normal saline in the left eye and with solvent/control sample/test sample in the right eye respectively by a volume of 50 μL/eye, once per day for 14 consecutive days, and the day of administration was recorded as Day 1. The intraocular pressure of the animals was measured before Day 1 administration and in 1, 2, 4, 6, 8 and 10 hours after Day 1 administration, respectively (Table 8)."}, "[3]": {"conditions": "4 mg/mL once per day, Day 2, 1 hour after daily administration"}, "[4]": {"conditions": "4 mg/mL once per day, Day 3, 1 hour after daily administration"}, "[5]": {"conditions": "4 mg/mL once per day, Day 4, 1 hour after daily administration"}, "[6]": {"conditions": "4 mg/mL once per day, Day 5, 1 hour after daily administration"}, "[7]": {"conditions": "4 mg/mL once per day, Day 6, 1 hour after daily administration"}, "[8]": {"conditions": "4 mg/mL once per day, Day 7, 1 hour after daily administration"}, "[9]": {"conditions": "4 mg/mL once per day, Day 8, 1 hour after daily administration"}, "[10]": {"conditions": "4 mg/mL once per day, Day 9, 1 hour after daily administration"}, "[11]": {"conditions": "4 mg/mL once per day, Day 10, 1 hour after daily administration"}, "[12]": {"conditions": "4 mg/mL once per day, Day 11, 1 hour after daily administration"}, "[13]": {"conditions": "4 mg/mL once per day, Day 12, 1 hour after daily administration"}, "[14]": {"conditions": "4 mg/mL once per day, Day 13, 1 hour after daily administration"}, "[15]": {"conditions": "4 mg/mL once per day, Day 14, 1 hour after daily administration"}}}
{"smiles": "C[C@H]1CNCCCN1S(=O)(=O)c1cccc2cncc(F)c12", "note": "[Compound K-115, reference compound]", "values": [{"measurement": "Mean intraocular pressure of both eyes", "setting": "[1]; 4 mg/mL both eyes, Day 1, 1 hour after administration", "result": 7.72, "unit": "mmHg"}, {"measurement": "Mean intraocular pressure of both eyes", "setting": "[1]; 4 mg/mL both eyes, Day 1, 2 hours after administration", "result": 9.00, "unit": "mmHg"}, {"measurement": "Mean intraocular pressure of both eyes", "setting": "[1]; 4 mg/mL both eyes, Day 1, 4 hours after administration", "result": 9.67, "unit": "mmHg"}, {"measurement": "Mean intraocular pressure of both eyes", "setting": "[1]; 4 mg/mL both eyes, Day 1, 6 hours after administration", "result": 10.56, "unit": "mmHg"}, {"measurement": "Mean intraocular pressure of both eyes", "setting": "[1]; 4 mg/mL both eyes, Day 1, 8 hours after administration", "result": 10.28, "unit": "mmHg"}, {"measurement": "Mean intraocular pressure of both eyes", "setting": "[1]; 4 mg/mL both eyes, Day 1, 10 hours after administration", "result": 12.81, "unit": "mmHg"}, {"measurement": "Mean intraocular pressure of both eyes", "setting": "[1]; 4 mg/mL both eyes, Day 1, before administration", "result": 10.83, "unit": "mmHg"}, {"measurement": "Mean intraocular pressure of both eyes", "setting": "[1]; [3]", "result": 6.83, "unit": "mmHg"}, {"measurement": "Change of intraocular pressure", "setting": "[1]; [3]", "result": 4.25, "unit": "mmHg"}, {"measurement": "Mean intraocular pressure of both eyes", "setting": "[1]; [4]", "result": 6.81, "unit": "mmHg"}, {"measurement": "Change of intraocular pressure", "setting": "[1]; [4]", "result": 3.58, "unit": "mmHg"}, {"measurement": "Mean intraocular pressure of both eyes", "setting": "[1]; [5]", "result": 6.92, "unit": "mmHg"}, {"measurement": "Change of intraocular pressure", "setting": "[1]; [5]", "result": 3.69, "unit": "mmHg"}, {"measurement": "Mean intraocular pressure of both eyes", "setting": "[1]; [6]", "result": 6.67, "unit": "mmHg"}, {"measurement": "Change of intraocular pressure", "setting": "[1]; [6]", "result": 4.3, "unit": "mmHg"}, {"measurement": "Mean intraocular pressure of both eyes", "setting": "[1]; [7]", "result": 6.75, "unit": "mmHg"}, {"measurement": "Change of intraocular pressure", "setting": "[1]; [7]", "result": 2.56, "unit": "mmHg"}, {"measurement": "Mean intraocular pressure of both eyes", "setting": "[1]; [8]", "result": 7.39, "unit": "mmHg"}, {"measurement": "Change of intraocular pressure", "setting": "[1]; [8]", "result": 2.67, "unit": "mmHg"}, {"measurement": "Mean intraocular pressure of both eyes", "setting": "[1]; [9]", "result": 7.53, "unit": "mmHg"}, {"measurement": "Change of intraocular pressure", "setting": "[1]; [9]", "result": 3.78, "unit": "mmHg"}, {"measurement": "Mean intraocular pressure of both eyes", "setting": "[1]; [10]", "result": 7.78, "unit": "mmHg"}, {"measurement": "Change of intraocular pressure", "setting": "[1]; [10]", "result": 1.66, "unit": "mmHg"}, {"measurement": "Mean intraocular pressure of both eyes", "setting": "[1]; [11]", "result": 7.94, "unit": "mmHg"}, {"measurement": "Change of intraocular pressure", "setting": "[1]; [11]", "result": 1.81, "unit": "mmHg"}, {"measurement": "Mean intraocular pressure of both eyes", "setting": "[1]; [12]", "result": 7.94, "unit": "mmHg"}, {"measurement": "Change of intraocular pressure", "setting": "[1]; [12]", "result": 1.75, "unit": "mmHg"}, {"measurement": "Mean intraocular pressure of both eyes", "setting": "[1]; [13]", "result": 7.89, "unit": "mmHg"}, {"measurement": "Change of intraocular pressure", "setting": "[1]; [13]", "result": 1.64, "unit": "mmHg"}, {"measurement": "Mean intraocular pressure of both eyes", "setting": "[1]; [14]", "result": 8.25, "unit": "mmHg"}, {"measurement": "Change of intraocular pressure", "setting": "[1]; [14]", "result": 3.14, "unit": "mmHg"}, {"measurement": "Mean intraocular pressure of both eyes", "setting": "[1]; [15]", "result": 8.50, "unit": "mmHg"}, {"measurement": "Change of intraocular pressure", "setting": "[1]; [15]", "result": 2.47, "unit": "mmHg"}, {"measurement": "Change of intraocular pressure", "setting": "[1]; 4 mg/mL, Day 1, 1 hour after administration", "result": 2.59, "unit": "mmHg"}, {"measurement": "Change of intraocular pressure", "setting": "[1]; 4 mg/mL, Day 1, 2 hours after administration", "result": 1.97, "unit": "mmHg"}, {"measurement": "Change of intraocular pressure", "setting": "[1]; 4 mg/mL, Day 1, 4 hours after administration", "result": 1.64, "unit": "mmHg"}, {"measurement": "Change of intraocular pressure", "setting": "[1]; 4 mg/mL, Day 1, 6 hours after administration", "result": 1.38, "unit": "mmHg"}, {"measurement": "Change of intraocular pressure", "setting": "[1]; 4 mg/mL, Day 1, 8 hours after administration", "result": 2.69, "unit": "mmHg"}, {"measurement": "Change of intraocular pressure", "setting": "[1]; 4 mg/mL, Day 1, 10 hours after administration", "result": 1.61, "unit": "mmHg"}, {"measurement": "Change of intraocular pressure", "setting": "[1]; 4 mg/mL, Day 1, before administration", "result": "−0.94", "unit": "mmHg"}, {"measurement": "Mean intraocular pressure of both eyes", "setting": "[2]; 1 hour after administration", "result": 5.50, "unit": "mmHg"}, {"measurement": "Mean intraocular pressure of both eyes", "setting": "[2]; 2 hours after administration", "result": 7.06, "unit": "mmHg"}, {"measurement": "Mean intraocular pressure of both eyes", "setting": "[2]; 4 hours after administration", "result": 9.00, "unit": "mmHg"}, {"measurement": "Mean intraocular pressure of both eyes", "setting": "[2]; 6 hours after administration", "result": 9.17, "unit": "mmHg"}, {"measurement": "Mean intraocular pressure of both eyes", "setting": "[2]; 8 hours after administration", "result": 10.61, "unit": "mmHg"}, {"measurement": "Mean intraocular pressure of both eyes", "setting": "[2]; 10 hours after administration", "result": 12.33, "unit": "mmHg"}, {"measurement": "Mean intraocular pressure of both eyes", "setting": "[2]; before administration", "result": 10.17, "unit": "mmHg"}, {"measurement": "Change of intraocular pressure", "setting": "[2]; 1 hour after administration", "result": "−3.39", "unit": "mmHg"}, {"measurement": "Change of intraocular pressure", "setting": "[2]; 2 hours after administration", "result": "−2.50", "unit": "mmHg"}, {"measurement": "Change of intraocular pressure", "setting": "[2]; 4 hours after administration", "result": "−0.89", "unit": "mmHg"}, {"measurement": "Change of intraocular pressure", "setting": "[2]; 6 hours after administration", "result": "−1.61", "unit": "mmHg"}, {"measurement": "Change of intraocular pressure", "setting": "[2]; 8 hours after administration", "result": 0.23, "unit": "mmHg"}, {"measurement": "Change of intraocular pressure", "setting": "[2]; 10 hours after administration", "result": 0.17, "unit": "mmHg"}, {"measurement": "Change of intraocular pressure", "setting": "[2]; before administration", "result": 0.83, "unit": "mmHg"}]}
